Experimental data published in ChEMBL document CHEMBL4330071 (Eur J Med Chem, 2019).

Assays:
[1] = biological target: Cyclin-dependent kinase 7/ cyclin H (Homo sapiens) (UniProt P51946+P50613); assay: Inhibition of human CDK7/cyclin-H assessed as residual activity at 10 uM using MBP as substrate preincubated for 20 mins followed by [gamma-33P]-ATP addition and measured after 120 mins by Hotspot assay relative to control; assay type: protein-complex assay
MV4-11 [2] = assay: Induction of apoptosis in human MV4-11 cells assessed as late apoptotic cells at 1 uM after 24 hrs by Annexin V-FITC/propidium iodide staining based flow cytometric analysis (reference value: 1.42%); assay type: functional
[3] = biological target: Inhibitor of nuclear factor kappa-B kinase subunit alpha (Homo sapiens) (UniProt O15111); assay: Inhibition of human IKKalpha assessed as residual activity at 10 uM using KKKKERLLDDRHDSGLDSMKDEE as substrate preincubated for 20 mins followed by [gamma-33P]-ATP addition and measured after 120 mins by Hotspot assay relative to control
MV4-11 [4] = assay: Induction of apoptosis in human MV4-11 cells assessed as early apoptotic cells at 0.02 uM after 24 hrs by Annexin V-FITC/propidium iodide staining based flow cytometric analysis (reference value: 3.39%); assay type: functional
MV4-11 [5] = assay: Induction of apoptosis in human MV4-11 cells assessed as late apoptotic cells at 0.1 uM after 24 hrs by Annexin V-FITC/propidium iodide staining based flow cytometric analysis (reference value: 1.42%); assay type: functional
MV4-11 [6] = assay: Induction of apoptosis in human MV4-11 cells assessed as viable cells at 0.5 uM after 24 hrs by Annexin V-FITC/propidium iodide staining based flow cytometric analysis (reference value: 95.19%); assay type: functional; conditions: MV4-11, 24 h, read-out: Activity
[7] = biological target: Serine/threonine-protein kinase Nek2 (Homo sapiens) (UniProt P51955); assay: Inhibition of human NEK2 assessed as residual activity at 10 uM using MBP as substrate preincubated for 20 mins followed by [gamma-33P]-ATP addition and measured after 120 mins by Hotspot assay relative to control
Chain of Serine/threonine-protein kinase Nek2 (Homo sapiens) (P51955 whole entry): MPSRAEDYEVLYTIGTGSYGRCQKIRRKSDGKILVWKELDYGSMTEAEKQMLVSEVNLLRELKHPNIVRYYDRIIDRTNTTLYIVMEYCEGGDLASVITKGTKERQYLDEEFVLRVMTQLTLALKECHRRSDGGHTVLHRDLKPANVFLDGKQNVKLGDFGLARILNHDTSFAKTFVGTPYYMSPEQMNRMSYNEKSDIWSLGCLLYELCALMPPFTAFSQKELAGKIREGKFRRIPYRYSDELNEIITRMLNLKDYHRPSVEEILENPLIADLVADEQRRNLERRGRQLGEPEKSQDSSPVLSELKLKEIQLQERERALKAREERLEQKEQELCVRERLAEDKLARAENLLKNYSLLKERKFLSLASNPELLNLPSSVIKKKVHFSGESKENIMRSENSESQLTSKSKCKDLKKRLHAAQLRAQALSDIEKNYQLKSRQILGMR

[8] = biological target: Tyrosine-protein kinase ABL1 (Homo sapiens, UniProt P00519, Q252H); assay: Binding affinity to human phosphorylated ABL1 Q252H mutant expressed in mammalian expression system after 60 mins by Kinomescan method
[9] = biological target: Insulin-like growth factor 1 receptor (Homo sapiens) (UniProt P08069); assay: Inhibition of human IGF1R assessed as residual activity at 10 uM using KKKSPGEYVNIEFG as substrate preincubated for 20 mins followed by [gamma-33P]-ATP addition and measured after 120 mins by Hotspot assay relative to control
Chain of Insulin-like growth factor 1 receptor (Homo sapiens) (P08069 31-736 limits assumed): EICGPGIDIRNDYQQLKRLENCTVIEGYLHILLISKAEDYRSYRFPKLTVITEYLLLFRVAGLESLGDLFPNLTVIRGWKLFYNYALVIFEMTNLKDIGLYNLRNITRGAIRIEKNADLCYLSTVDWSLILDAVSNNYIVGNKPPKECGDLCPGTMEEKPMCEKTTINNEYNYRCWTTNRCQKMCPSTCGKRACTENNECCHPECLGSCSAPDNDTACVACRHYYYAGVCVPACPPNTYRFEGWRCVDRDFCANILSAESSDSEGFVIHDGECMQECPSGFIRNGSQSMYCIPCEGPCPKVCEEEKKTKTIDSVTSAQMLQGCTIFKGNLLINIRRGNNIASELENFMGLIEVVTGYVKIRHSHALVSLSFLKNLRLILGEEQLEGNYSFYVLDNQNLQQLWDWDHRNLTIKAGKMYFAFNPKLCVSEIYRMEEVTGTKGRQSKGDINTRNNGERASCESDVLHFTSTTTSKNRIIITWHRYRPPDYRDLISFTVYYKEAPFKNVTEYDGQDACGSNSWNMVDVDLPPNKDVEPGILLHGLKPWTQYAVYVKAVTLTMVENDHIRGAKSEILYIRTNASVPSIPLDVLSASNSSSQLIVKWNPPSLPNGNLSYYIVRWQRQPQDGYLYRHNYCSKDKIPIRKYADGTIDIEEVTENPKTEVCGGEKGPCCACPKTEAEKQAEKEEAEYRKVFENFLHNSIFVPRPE
Chain of Insulin-like growth factor 1 receptor (Homo sapiens) (P08069 741-1367 limits assumed): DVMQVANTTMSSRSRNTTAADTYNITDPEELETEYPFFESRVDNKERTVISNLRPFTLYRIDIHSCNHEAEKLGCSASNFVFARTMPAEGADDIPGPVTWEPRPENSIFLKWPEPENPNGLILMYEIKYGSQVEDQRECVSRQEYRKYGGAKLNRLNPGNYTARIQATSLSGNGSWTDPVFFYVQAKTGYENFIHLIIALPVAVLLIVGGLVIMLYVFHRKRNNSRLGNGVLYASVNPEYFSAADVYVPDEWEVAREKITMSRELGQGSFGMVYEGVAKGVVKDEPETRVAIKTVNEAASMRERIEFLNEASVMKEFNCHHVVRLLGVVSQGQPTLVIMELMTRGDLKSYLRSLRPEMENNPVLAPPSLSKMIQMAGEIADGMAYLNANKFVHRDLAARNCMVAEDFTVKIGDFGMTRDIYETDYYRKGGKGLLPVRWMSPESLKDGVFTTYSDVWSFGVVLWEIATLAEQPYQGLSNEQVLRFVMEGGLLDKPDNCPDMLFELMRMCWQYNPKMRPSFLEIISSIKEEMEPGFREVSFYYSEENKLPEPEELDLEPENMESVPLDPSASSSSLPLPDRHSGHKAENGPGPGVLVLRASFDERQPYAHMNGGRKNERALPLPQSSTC

MV4-11 [10] = assay: Induction of apoptosis in human MV4-11 cells assessed as necrotic cells at 0.05 uM after 24 hrs by Annexin V-FITC/propidium iodide staining based flow cytometric analysis (reference value: 0%); assay type: functional
[11] = biological target: ALK tyrosine kinase receptor (Homo sapiens, UniProt Q9UM73); assay: Inhibition of human ALK assessed as residual activity at 10 uM using poly[Glu:Tyr] (4:1) as substrate preincubated for 20 mins followed by [gamma-33P]-ATP addition and measured after 120 mins by Hotspot assay relative to control
Chain of ALK tyrosine kinase receptor (Q9UM73 19-1620 limits assumed): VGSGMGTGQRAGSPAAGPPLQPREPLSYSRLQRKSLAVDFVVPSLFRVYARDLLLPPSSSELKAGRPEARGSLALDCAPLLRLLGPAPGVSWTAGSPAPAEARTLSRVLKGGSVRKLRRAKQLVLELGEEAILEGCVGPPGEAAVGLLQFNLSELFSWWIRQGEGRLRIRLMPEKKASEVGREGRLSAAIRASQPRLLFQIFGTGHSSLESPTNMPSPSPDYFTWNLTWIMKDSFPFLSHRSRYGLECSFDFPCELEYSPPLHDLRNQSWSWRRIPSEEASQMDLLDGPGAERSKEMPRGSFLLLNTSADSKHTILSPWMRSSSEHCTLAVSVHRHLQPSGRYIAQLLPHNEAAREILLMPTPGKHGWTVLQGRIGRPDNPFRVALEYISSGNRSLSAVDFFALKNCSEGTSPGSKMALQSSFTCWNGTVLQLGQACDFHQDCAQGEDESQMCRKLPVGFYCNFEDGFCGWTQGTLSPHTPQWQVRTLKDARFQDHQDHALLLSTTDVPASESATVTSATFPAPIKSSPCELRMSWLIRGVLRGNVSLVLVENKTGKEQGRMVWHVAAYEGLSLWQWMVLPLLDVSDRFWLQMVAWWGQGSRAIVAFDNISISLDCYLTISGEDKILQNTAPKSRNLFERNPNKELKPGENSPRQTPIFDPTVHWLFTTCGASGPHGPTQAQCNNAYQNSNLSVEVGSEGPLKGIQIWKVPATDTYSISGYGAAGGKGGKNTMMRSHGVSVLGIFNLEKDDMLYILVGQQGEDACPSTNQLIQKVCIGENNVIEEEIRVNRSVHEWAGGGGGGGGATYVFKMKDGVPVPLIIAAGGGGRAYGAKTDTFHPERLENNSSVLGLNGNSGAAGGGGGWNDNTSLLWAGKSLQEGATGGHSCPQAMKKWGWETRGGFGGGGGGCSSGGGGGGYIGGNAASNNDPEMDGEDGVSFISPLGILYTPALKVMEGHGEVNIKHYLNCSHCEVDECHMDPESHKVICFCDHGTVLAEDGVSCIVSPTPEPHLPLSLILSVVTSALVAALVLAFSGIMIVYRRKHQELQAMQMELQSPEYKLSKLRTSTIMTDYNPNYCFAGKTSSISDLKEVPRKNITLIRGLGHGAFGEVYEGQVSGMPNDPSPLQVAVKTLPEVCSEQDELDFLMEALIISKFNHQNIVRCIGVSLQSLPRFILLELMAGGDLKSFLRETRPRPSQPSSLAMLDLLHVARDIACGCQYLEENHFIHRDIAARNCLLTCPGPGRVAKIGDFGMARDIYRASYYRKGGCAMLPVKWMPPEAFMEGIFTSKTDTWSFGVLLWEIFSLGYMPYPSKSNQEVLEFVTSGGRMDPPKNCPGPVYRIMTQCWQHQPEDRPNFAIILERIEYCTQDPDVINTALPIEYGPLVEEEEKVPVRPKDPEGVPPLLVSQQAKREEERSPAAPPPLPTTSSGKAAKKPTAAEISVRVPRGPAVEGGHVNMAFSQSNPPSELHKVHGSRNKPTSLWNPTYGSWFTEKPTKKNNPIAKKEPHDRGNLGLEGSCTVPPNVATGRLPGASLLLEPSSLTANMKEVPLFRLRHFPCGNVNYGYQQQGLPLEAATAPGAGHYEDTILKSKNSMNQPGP

MV4-11 [12] = assay: Growth inhibition of human MV4-11 cells harboring FLT3 ITD mutant at 10 uM after 72 hrs by CellTiter-Glo assay relative to control; assay type: functional; conditions: MV4-11, 72 h, read-out: GI
[13] = Half life in human liver microsomes at 1 uM after 5 to 60 mins in presence of NADPH by LC-MS/MS analysis; assay type: ADME, Microsome
MV4-11 [14] = assay: Induction of apoptosis in human MV4-11 cells assessed as early apoptotic cells at 0.1 uM after 24 hrs by Annexin V-FITC/propidium iodide staining based flow cytometric analysis (reference value: 3.39%); assay type: functional
[15] = biological target: Tyrosine-protein kinase Lck (Homo sapiens, UniProt P06239); assay: Inhibition of human LCK using poly[Glu:Tyr] (4:1) as substrate preincubated for 20 mins followed by [gamma-33P]-ATP addition and measured after 120 mins by Hotspot assay
Chain of Tyrosine-protein kinase Lck (P06239 whole entry, the tested form may be a part): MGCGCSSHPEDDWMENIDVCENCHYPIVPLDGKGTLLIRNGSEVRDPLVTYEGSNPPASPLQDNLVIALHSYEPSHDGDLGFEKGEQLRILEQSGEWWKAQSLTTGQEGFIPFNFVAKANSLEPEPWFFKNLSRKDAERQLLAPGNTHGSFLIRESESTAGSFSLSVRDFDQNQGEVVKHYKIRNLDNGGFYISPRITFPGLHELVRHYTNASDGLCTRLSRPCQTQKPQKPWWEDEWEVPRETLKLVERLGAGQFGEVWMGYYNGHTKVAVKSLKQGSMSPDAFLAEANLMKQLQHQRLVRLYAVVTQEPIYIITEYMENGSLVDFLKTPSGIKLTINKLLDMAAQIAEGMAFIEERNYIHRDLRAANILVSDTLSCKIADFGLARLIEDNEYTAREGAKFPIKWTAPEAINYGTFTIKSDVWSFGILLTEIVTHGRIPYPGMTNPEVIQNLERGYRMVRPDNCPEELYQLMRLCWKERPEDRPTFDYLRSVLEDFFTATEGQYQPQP

[16] = biological target: Macrophage colony-stimulating factor 1 receptor (Homo sapiens, UniProt P07333); assay: Binding affinity to wild-type human partial length autoinhibited CSF1R (Y538 to S939 residues) expressed in mammalian expression system after 60 mins by Kinomescan method
[17] = biological target: Epidermal growth factor receptor (Homo sapiens) (UniProt P00533); assay: Inhibition of human EGFR assessed as residual activity at 10 uM using poly[Glu:Tyr] (4:1) as substrate preincubated for 20 mins followed by [gamma-33P]-ATP addition and measured after 120 mins by Hotspot assay relative to control
Chain of Epidermal growth factor receptor (Homo sapiens) (P00533 whole entry): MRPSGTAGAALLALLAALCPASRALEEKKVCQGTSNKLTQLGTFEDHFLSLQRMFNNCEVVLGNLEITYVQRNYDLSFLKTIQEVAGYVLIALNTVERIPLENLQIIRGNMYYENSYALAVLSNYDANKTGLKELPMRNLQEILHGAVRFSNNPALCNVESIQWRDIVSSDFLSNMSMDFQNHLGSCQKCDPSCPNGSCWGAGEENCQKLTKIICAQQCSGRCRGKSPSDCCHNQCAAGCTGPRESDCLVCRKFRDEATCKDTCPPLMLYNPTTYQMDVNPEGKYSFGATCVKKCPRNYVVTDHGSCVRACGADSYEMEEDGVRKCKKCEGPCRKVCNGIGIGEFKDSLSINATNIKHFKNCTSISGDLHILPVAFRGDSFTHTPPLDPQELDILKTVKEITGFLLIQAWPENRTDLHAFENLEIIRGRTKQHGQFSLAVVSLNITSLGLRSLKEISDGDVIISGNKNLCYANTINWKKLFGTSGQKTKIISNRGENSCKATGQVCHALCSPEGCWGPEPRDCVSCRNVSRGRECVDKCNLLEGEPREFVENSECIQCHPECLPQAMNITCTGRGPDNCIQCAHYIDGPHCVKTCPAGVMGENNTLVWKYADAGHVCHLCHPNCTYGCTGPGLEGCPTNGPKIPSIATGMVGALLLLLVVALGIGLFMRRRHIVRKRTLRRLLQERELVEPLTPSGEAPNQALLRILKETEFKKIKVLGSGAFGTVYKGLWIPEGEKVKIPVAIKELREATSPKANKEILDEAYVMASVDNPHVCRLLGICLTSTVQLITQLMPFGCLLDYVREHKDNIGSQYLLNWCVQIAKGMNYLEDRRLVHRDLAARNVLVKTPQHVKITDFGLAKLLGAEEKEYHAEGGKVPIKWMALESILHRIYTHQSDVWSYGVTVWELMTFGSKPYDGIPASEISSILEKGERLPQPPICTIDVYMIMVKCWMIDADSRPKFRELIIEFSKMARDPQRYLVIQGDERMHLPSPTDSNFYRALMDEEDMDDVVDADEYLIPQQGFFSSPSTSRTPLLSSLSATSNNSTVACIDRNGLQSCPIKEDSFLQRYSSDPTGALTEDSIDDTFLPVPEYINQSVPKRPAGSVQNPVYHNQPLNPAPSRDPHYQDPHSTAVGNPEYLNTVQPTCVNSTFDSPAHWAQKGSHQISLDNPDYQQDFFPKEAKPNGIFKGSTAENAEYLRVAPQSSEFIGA

[18] = biological target: Proto-oncogene tyrosine-protein kinase Src (Homo sapiens, UniProt P12931); assay: Inhibition of human c-SRC using poly[Glu:Tyr] (4:1) as substrate preincubated for 20 mins followed by [gamma-33P]-ATP addition and measured after 120 mins by Hotspot assay
[19] = Intrinsic clearance in rat liver microsomes assessed per mg protein at 1 uM after 5 to 60 mins in presence of NADPH by LC-MS/MS analysis; assay type: ADME, Microsome; conditions: read-out: CLH
[20] = biological target: CDC7/DBF4 (Cell division cycle 7-related protein kinase/Activator of S phase kinase) (Homo sapiens) (UniProt Q9UBU7+O00311); assay: Inhibition of human CDC7/DBF4 assessed as residual activity at 10 uM using KTFCGTPEYLAPEVRREPRILSEEEQEMFRDFDYIADWC as substrate preincubated for 20 mins followed by [gamma-33P]-ATP addition and measured after 120 mins by Hotspot assay relative to control; assay type: protein-complex assay
MV4-11 [21] = assay: Induction of apoptosis in human MV4-11 cells assessed as viable cells at 0.05 uM after 24 hrs by Annexin V-FITC/propidium iodide staining based flow cytometric analysis (reference value: 95.19%); assay type: functional; conditions: MV4-11, 24 h, read-out: Activity
[22] = biological target: CDK2/Cyclin A2 (Homo sapiens) (UniProt P24941+P20248); assay: Inhibition of human CDK2/cyclin-A assessed as residual activity at 10 uM using histone H1 as substrate preincubated for 20 mins followed by [gamma-33P]-ATP addition and measured after 120 mins by Hotspot assay relative to control; assay type: protein-complex assay
[23] = biological target: Tyrosine-protein kinase ABL1 (Homo sapiens, UniProt P00519, F317L); assay: Binding affinity to human non-phosphorylated ABL1 F317L mutant (S229 to K512 residues) expressed in mammalian expression system after 60 mins by Kinomescan method
[24] = biological target: Cyclin-dependent kinase 4/cyclin D1 (Homo sapiens) (UniProt P11802+P24385); assay: Inhibition of human CDK4/cyclin-D1 assessed as residual activity at 10 uM using RB protein as substrate preincubated for 20 mins followed by [gamma-33P]-ATP addition and measured after 120 mins by Hotspot assay relative to control; assay type: protein-complex assay
MV4-11 [25] = assay: Induction of apoptosis in human MV4-11 cells assessed as viable cells at 0.2 uM after 24 hrs by Annexin V-FITC/propidium iodide staining based flow cytometric analysis (reference value: 95.19%); assay type: functional; conditions: MV4-11, 24 h, read-out: Activity
[26] = biological target: Fibroblast growth factor receptor 1 (Homo sapiens, UniProt P11362); assay: Inhibition of human FGFR1 using KKKSPGEYVNIEFG as substrate preincubated for 20 mins followed by [gamma-33P]-ATP addition and measured after 120 mins by Hotspot assay

CN1CCC(Nc2ccc(C(=O)Nc3cc(-c4cc(C#N)cs4)n[nH]3)cc2)CC1
Activity [1]: 27.1% | Activity (MV4-11 [2]): 27.75% | Activity [3]: 86.5% | Activity (MV4-11 [4]): 17.09% | Activity (MV4-11 [5]): 15.97% | viability at 0.5 µM (MV4-11 [6]): 39.8% | Activity [7]: 11% | Kd [8]: 300 nM | Activity [9]: 94.8% | Activity (MV4-11 [10]): 4.51% | Activity [11]: 23% | inhibition of growth at 10 µM (MV4-11 [12]): 89.9% | half-life at 1 µM [13]: 1.03 h | Activity (MV4-11 [14]): 24.27% | IC50 [15]: 1010 nM | Kd [16]: 84 nM | Activity [17]: 65.5% | IC50 [18]: 2400 nM | microsomal CLint at 1 µM [19]: 171 µL/min/mg | Activity [20]: 101% | viability at 0.05 µM (MV4-11 [21]): 59.6% | Activity [22]: 66.8% | Kd [23]: 6900 nM | Activity [24]: 49.2% | viability at 0.2 µM (MV4-11 [25]): 48.8% | IC50 [26]: 962 nM
